Key:
[1] = target: T1, mCherry-^FIREtag / Lyn11-ECFP-^FIREmate (Halorhodospira halophila, UniProt P16113, A30V/C69G/D97P/F96I, form not given/G21E/G25R/K17N/M100R/M109L/Q41L/Q99S/S72T/T101G/V83A/Y94W/Y98T); test: Recruitment of cytoplasmic protein to the plasma membrane, HEK293 cells; format: cell-based; conditions: 10 μM
T1 construct: Lyn11-ECFP-FIREmate and mCherry-FIREtag in HEK293 cells
T1 sequence (P16113 1-114 A30V/C69G/D97P/F96I/G21E/G25R/K17N/M100R/M109L/Q41L/Q99S/S72T/T101G/V83A/Y94W/Y98T): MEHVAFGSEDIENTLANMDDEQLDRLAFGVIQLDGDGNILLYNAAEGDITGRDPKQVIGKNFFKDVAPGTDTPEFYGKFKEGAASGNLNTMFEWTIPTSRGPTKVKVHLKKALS
Procedure: FIGS. 8A-E illustrate the recruitment of cytoplasmic proteins to the plasma membrane with the proximity inducing system described herein. FIG. 8A is a representation of the experimental design wherein HEK293 cells co-expressing mCherry-^FIREtag and Lyn11-ECFP-^FIREmate were treated with 10 μM of match (either HBR-2,5DM or HMBR), and imaged by time-lapse confocal microscopy. FIGS. 8B-C are graphs showing the temporal evolution of the FIRE signal detected upon addition at 0 min of HBR-2,5DM (match1-8B) or HMBR (match2-8C). Data represents the mean values±SD of 22 cells from n=3 independent experiments (8B, D), or of 30 cells from n=3 independent experiments (8C, E). FIGS. 8D-E are sets of representative confocal micrographs of cells before (0 min) and after (5 min) addition of HBR-2,5DM (match1-8D) or HMBR (match2-8E) (mCherry: ex/em 561/606-675 nm; FIRE: ex/em 488/508-570 nm; ECFP: ex/em 445/455-499 nm). […] Scale bars are 20 μm.
(§1) The confocal micrographs were acquired on a Zeiss LSM 980 Laser Scanning Microscope equipped with a plan apochromat 63x/1.4 NA oil immersion objective. ZEN software was used to collect the data. The images were analyzed using Icy (2.4.0.0) and Fiji (Image J). In short, to track fluorescence signal in a specific organelle, a ROI (region of interest) was determined by masking the signal in the ECFP (Enhanced Cyan Fluorescent Protein) channel with the plug-in HK-means with the following parameters: intensity class equals 100, minimum object size (pixels or px) equals 500, maximum object size (px) equals 1500-3000. The signal intensity of the ROI was tracked over time for each channel by using plug-in Active Contours. The background signal was subtracted. Data were processed using GraphPad Prism v9.3.0.
To further evaluate the scope of the proximity inducing system described herein and show its versatility, ^FIREmate was anchored at the membrane of various organelles or cellular structures so that ^FIREmate faced the cytosol. ^FIREmate was thus fused: • to the N-terminus of the transmembrane domain (amino acid residues at positions 3131-3259) of Giantin for location at the cis-medial rims of the Golgi apparatus (FIG. 6A), • to the N-terminus of the transmembrane domain (amino acid residues at positions 100-134) of the cytochrome b5 (Cb5) for location at the endoplasmic reticulum membrane (FIG. 7A), and • to the C-terminus of the Lyn11 inner membrane targeting sequence for location at the plasma membrane (FIG. 8A).
For each construct, an ECFP was inserted between ^FIREmate and the other protein domain/sequence to monitor the localization of the resulting fusion protein (blue fluorescence). Each fusion protein was co-expressed in mammalian cells (HeLa cells or HEK293 cells as indicated) together with mCherry-^FIREtag (red fluorescence). […]

[2] = target: T2, NLS-mCherry-^FIREmate / NES-ECFP-^FIREtag (Halorhodospira halophila, UniProt P16113, A30V/C69G/D97P/F96I, form not given/G21E/G25R/K17N/M100R/M109L/Q41L/Q99S/S72T/T101G/V83A/Y94W/Y98T); test: Nuclear export of proteins (nucleocytoplasmic trafficking), confocal microscopy, HeLa cells; format: cell-based; conditions: 10 μM, 4 min
T2 construct: NLS-mCherry-FIREmate and NES-ECFP-FIREtag in HeLa cells
T2 sequence (P16113 1-114 A30V/C69G/D97P/F96I/G21E/G25R/K17N/M100R/M109L/Q41L/Q99S/S72T/T101G/V83A/Y94W/Y98T): T1 sequence (P16113 1-114 A30V/C69G/D97P/F96I/G21E/G25R/K17N/M100R/M109L/Q41L/Q99S/S72T/T101G/V83A/Y94W/Y98T)
Procedure: FIGS. 13A-D illustrate the nuclear export of proteins mediated by the proximity inducing system described herein. FIG. 13A is a representation of the experimental design wherein HeLa cell co-expressing NLS-mCherry-FIR_^FIREmate and NES-ECFP-^FIREtag were treated with 10 μM of match (i.e., HBR-2,5DM) and imaged by time-lapse confocal microscopy. FIG. 13B is a graph showing the temporal evolution of the ratio nucleus-to-cytoplasm mCherry fluorescence intensities of n=5 cells from 2 independent experiments. FIG. 13C is a graph showing the temporal evolution of the FIRE signal detected upon addition of HBR-2,5DM at 0 min of n=5 cells from 2 independent experiments. […]
as §1, with “ZEN software was used to collect the data.” left out, “The signal intensity of the ROI was tracked over time for each channel by using plug-in Active Contours. The background signal was subtracted. Data were processed using GraphPad Prism v9.3.0.” left out

## Cc1cc(/C=C2\SC(=S)NC2=O)c(C)cc1O [HBR-2,5DM, (Z)-5-(4-hydroxy-2,5-dimethylbenzylidene)-2-thioxo-1,3-thiazolidin-4-one]
[1]
  FIRE signal at the plasma membrane: simultaneous appearance of green fluorescence
  translocation of mCherry-^FIREtag to the plasma membrane: rapid translocation of mCherry-^FIREtag to the organelle
[2]
  FIRE signal in the cytoplasm: strong cytoplasmic green fluorescence
  cytoplasmic localization of the formed protein complex (nuclear export of NLS-mCherry-^FIREmate): efficient cytoplasmic localization of the formed protein complex

From US20260309717A1, “PROXIMITY INDUCING SYSTEM AND USES THEREOF” (SORBONNE UNIVERSITE, priority 2022, published 2026)
